Source: PubChem BioAssay (NCI)
Several values for one entry are separate records, joined by “and”; a condition that tells them apart may be missing. Identical values can stand only once.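 Five concentrations, 48 hours, 96-well plates. The concentration for 50% growth inhibition is given as GI50. At the TGI there is no net growth.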

Key:
Assay in all cases: inhibition of tumour cell growth, NCI panel, 48 h
[1] = tested on: A549 NSCLC
[2] = tested on: CAKI-1 renal
[3] = tested on: HCT-116 colon
[4] = tested on: HOP-92 NSCLC
[5] = tested on: K-562 leukemia
[6] = tested on: MDA-MB-435
[7] = tested on: SF-539 CNS
[8] = tested on: SK-OV-3 ovarian
[9] = tested on: T-47D breast
[10] = tested on: UACC-62 melanoma

SMILES | GI50 [1] [µM] | TGI [1] [µM] | GI50 [2] [µM] | TGI [2] | GI50 [3] [µM] | TGI [3] [µM] | GI50 [4] [µM] | TGI [4] | GI50 [5] [µM] | TGI [5] [µM] | GI50 [6] [µM] | TGI [6] | GI50 [7] [µM] | TGI [7] | GI50 [8] [µM] | TGI [8] | GI50 [9] [µM] | TGI [9] | GI50 [10] [µM] | TGI [10] [µM]
O=C1C(=O)c2ccccc2C(O)=C1CCCc1ccc(C2CCCCC2)cc1 | 3.93 | > 100 | 2.02 | 6.51 µM | 2.01 | 14.3 | 1.71 | 24 µM | 3.28 | > 100 | 3.64 | 22.6 µM | 5.78 | 28.7 µM | 10.9 | 59.7 µM | 3.2 | 35.7 µM | 0.816 | 19.4
CCCCCCCCCCCCCCCCOP(=O)([O-])OCC[N+](C)(C)C | 1.6 |  | 0.931 | 2.99 µM and 27.7 µM | 1.49 |  | 1.14 | 3.12 µM and 15.3 µM |  | 64.9 | 2 | 5.23 µM and 39.3 µM | 2.34 | 5.86 µM and 52.9 µM | 1.2 | 9.4 µM and 57.1 µM | 4.42 | 16.2 µM and 35.9 µM | 1.34 | 
COC(=O)C(=O)C(C(=O)C(=O)Nc1ccccc1OC)c1nc2ccc([N+](=O)[O-])cc2[nH]c1=O (stereo not drawn) |  | > 100 |  | > 100 µM |  | > 100 |  | > 100 µM |  | > 100 |  | > 100 µM |  | > 100 µM |  | > 100 µM |  | > 100 µM |  | > 100
Cn1nc(C(F)(F)F)c(-c2cc(C(F)(F)F)cc(C(F)(F)F)c2)c1-c1ccc(OCc2ccc(Cl)cc2)cc1O | 3.18 | 11.7 | 2.11 | 5.9 µM | 1.62 | 3.81 | 1.63 | 5.07 µM | 0.62 | 10.1 | 2.54 | 8.03 µM | 2.1 | 5.94 µM | 2.82 | 10.1 µM | 1.54 | 8.4 µM | 1.45 | 4.05
O=C(c1ccco1)c1c(C(F)(F)F)n([O-])c2cc(C(F)(F)F)ccc2[n+]1=O | 0.445 | 1.02 | 1.51 | 2.97 µM | 0.23 | 1.31 | 0.252 | 1.51 µM | 0.172 | 0.379 | 1.47 | 3.1 µM | 1.27 | 2.61 µM | 1.65 | 3.13 µM | 0.355 | 1.47 µM | 1.44 | 2.89
CCCCCCCC(=O)SCC/C=C/[C@@H]1CC(=O)NCc2nc(cs2)C2=N[C@@](C)(CS2)C(=O)N[C@@H](C(C)C)C(=O)N1 | 0.0273 | 1.53 | 2.75 | 17.6 µM | < 0.01 | 0.035 | < 0.0119 | 0.229 µM | 0.0182 | > 100 | < 0.01 | 1.9 µM | 0.0381 | > 57.8 µM | 0.0149 | 0.14 µM | < 0.0124 | 0.0677 µM | < 0.01 | 0.165
COc1cc(OC)c(OC)cc1/C=C/c1cnnc2ccccc12 |  | > 10 |  | > 10 µM |  | > 10 |  | > 10 µM |  | > 10 |  | 6.52 µM |  | > 10 µM |  | > 10 µM |  | > 10 µM |  | > 10
CC([C@H]1CC=C2C3CCC4=C[C@@H](N(C)C)CC[C@]4(C)C3CC[C@@]21C)N(C)C (stereo partly drawn) | 3.97 | 11.1 | 2.49 | 10.3 µM | 1.07 | 2.76 | 3.66 | 10.3 µM | 0.611 | 3.05 | 2 | 4.94 µM | 1.4 | 2.84 µM | 3.86 | 11.6 µM | 1.17 | 7.77 µM | 1.75 | 3.59
Cc1nc2ccccn2c1NC(=O)NNC(=S)Nc1ccc(F)cc1 | > 100 | > 100 | > 100 | > 100 µM | > 100 | > 100 | > 100 | > 100 µM | > 100 | > 100 | > 100 | > 100 µM | > 100 | > 100 µM | > 100 | > 100 µM | > 100 | > 100 µM | > 100 | > 100
Cc1ccc2c(c1)C(=O)c1c-2c(OCCCN(C)C)nc2ccccc12 | 1.46 | 3.19 | 4.1 | 18.2 µM | 0.718 | 2.12 | 2.18 | 11.6 µM | 1.11 | 2.98 | 1.54 | 2.97 µM | 1.53 | 2.99 µM | 4.47 | 17.4 µM | 7.95 | 26 µM | 2.08 | 4.34
C=C1SC(=Nc2ccccc2Cl)N(C(=O)c2sc3ccccc3c2Cl)C12CCCCC2 | 4.31 | > 100 | 3.05 | > 100 µM | 7.61 | > 100 | 2.01 | 9.31 µM | 4.14 | > 100 | 29.8 | > 100 µM | 34.9 | > 100 µM | 13.9 | > 100 µM | 3.35 | > 100 µM | 22.8 | > 100
COc1ccc2c(c1OC)C(C(Cl)(Cl)Cl)N1CCc3cc4c(cc3C1=C2)OCO4 (stereo not drawn) |  | > 100 |  | > 100 µM |  | 27.9 |  | 84.7 µM |  |  |  | 27 µM |  | > 100 µM |  | 85.9 µM |  | > 100 µM |  | 30.5
N#C/C(=N\Nc1ccccc1)C(=O)Nc1cc(-c2ccccc2)nn1-c1ccccc1 | 2.95 | > 100 | 2.88 | > 100 µM | 2.14 | > 100 | 0.181 | 2.58 µM | 2.43 | > 100 | 3.05 | > 100 µM | 3.3 | 19.7 µM |  |  | 2.03 | 8.11 µM | 1.65 | > 100
